# Experiments:
# [1] = Body weight monitoring of obese mice; type: in vivo, mouse
# Experimental: Male C57BL/6J background and ob/ob mice were obtained from CLEA Japan Inc. and Japan SLC, respectively (3). The reason why male mice were selected is that it has been reported that male mice are susceptible to HFD, such as weight gain, metabolic changes, and disorder of learning and hippocampal synaptic plasticity. These animals were housed 3 to 4 per cage in a standard 12 hour dark-light cycle room at 25° C. in an environment with freely available food and water. All animal experiments were performed in accordance with the guidelines of the Animal Experiment Ethics Committee of the University of the Ryukyus. Time series changes in average food intake and average body weight were monitored in each condition.
# HFD mice were orally administered with HydroGel (Clear HO, Portland, ME 04101, USA) at a dose of 5 mg/kg body weight (HFD treated group with PER). For ob/ob mice, CE-2 feed (CLEA Japan, Inc., Tokyo) was used. HFD mice and ob/ob mice were orally administered one per cage with PER at a dose of 5 mg/kg body weight (HFD mice and ob/ob mice PER-administered group), and body weight and HydroGel intake were monitored twice a week for both groups to adjust the dose of PER to 5 mg/kg body weight.
# Post-weaning (6 weeks) food intake and body weight of mice maintained on control diet (CD), high-fat diet (HFD), or HFD containing PER (Fycompa (trademark), Eisai, Japan) (5 mg/kg/day) was monitored up to 18 w (FIGS. 2, E and F). […] To determine the effect of HFD on cognitive behaviors, the open field test (FIG. 9, AC), elevated plus maze test (FIG. 9, DE), the contextual fear conditioning test (FIG. 9, F), the novel object recognition test (FIG. 2G), and a five-trial social interaction test (FIG. 2H) were performed. […]
# Mice were then split into an HFD-fed group (n=5) and a PER-containing HFD-fed group (n=5) under the condition of the same feeding amount (refer to lower Panel of FIG. 25) and their body weights monitored.
# NL(−/−) mice = assay: Bicculine-induced epileptiform reactions in NL(−/−) mice; type: in vivo, mouse; conditions: perampanel administration
# Excerpt: Epilepsy occurs more frequently in AD patients than in the control population (Pascal E 2012), and the incidence of epilepsy increases to 7 to 21% (Amatniek et al., 2006; Hauser et al., 1986; Mendez and Lim, 2003) in sporadic AD patients and 30% in early-onset familial AD (FAD) (Palop and Mucke, 2009; Larner and Doran, 2006). Early latent hippocampal hyperexcitability was detected in AD patients (Lam A D et al., Nat Med 2017). […] In particular, in NL-G-F(−/−) mice (15 to 17 weeks old), significant enhancement of epileptiform reactions in the CA1 and CA2 regions was confirmed by Bicculine (BIC) (refer to FIG. 32). […] In an animal model of AD in which amyloid β is accumulated, it has been reported that an epileptiform reaction is enhanced (Busche, 2008; 2012). Also in this experiment, epileptic induction by bicrine was enhanced in both NL(−/−) mice and NL-G-F(−/−) (15 to 17 weeks old (W)) as compared with control mice.
# [2] = tested on: dendritic arbors and spines of hippocampus; assay: Golgi staining of hippocampus; type: in vivo, mouse; conditions: HFD mice with PER
# Excerpt: Coronal sections of mouse brains from Bregma-0.94 mm to Bregma-4.04 mm (5 mm wide, including the entire hippocampus from dorsal to ventral, medial to lateral) were fixed with 4% paraformaldehyde for 2 days, and then stained with the Golgi Cox staining system (FD Rapid GolgiStain™ Kit, MD 21041, USA). The impregnated tissues were cut into 100 μm sections and counterstained with crystal violet, and the total number of 15 μm spines on the apical dendrites of CA1 and DG and the percentage of morphologic spines (thin, stubby, mushroom) were examined using an Axio Observer Z1 (Carl Zeiss, Germany). Another set of paraformaldehyde-fixed 5 mm wide coronal sections of the brain, including the entire hippocampus, were processed using the passive CLARITY technique (PACT) (62) and examined through Lightsheet Z.1 (Carl Zeiss, Germany) using a 10× clear objective lens, and 3D images of Thy1-YFPH transgenic mice (the Jackson Laboratory, stock number: 003709, strain name: B6. Cg-Tg. (Thy1-YFP) 16Jrs/J) (63, 64), HFD-fed mice, and whole hippocampus of the HFD-fed mice with PER treatment. were acquired respectively. Maximum intensity projection images were acquired along the Z dimension, time dimension, and channel dimension to create an output image with the pixel containing the maximum value for all images in the stack at a particular pixel position. With the Z-stack function, a series of XY images at different focus positions can be acquired to create Z-stack. In this manner, a 3D dataset of 400 μm×400 μm was obtained from the specimens, dorsal to lateral and medial to lateral for each of CA1, CA3, and DG.
# NMDA receptor (NMDAR) = assay: Ca2+ imaging (Fluo-3) of hippocampal brain slices, NMDA + glycine application (NMDA reaction); type: cell-based, mouse
# [3] = HFD-fed mice with oral PER 5 mg/kg/day, NMDA 50 μM + glycine 10 μM, N = 5
compound,measurement,setting,value
"N#Cc1ccccc1-c1cc(-c2ccccn2)cn(-c2ccccc2)c1=O [PER, 3-(2-cyanophenyl)-5-(2-pyridyl)-1-phenyl-1,2-dihydropyridine-2-one]",body weight,"[1]; HFD containing PER 5 mg/kg/day from 6 weeks to 18 w, started from 16 w compared to HFD",significant inhibition
same,body weight under the same feeding amount,[1]; PER-containing HFD-fed group (n=5) vs HFD-fed group (n=5),significant body weight loss
same,appearance and body weight,"[1]; ob/ob mice, perampanel-containing diet 5 mg/kg body weight from 8 to 12 weeks of age",overweight was prevented
same,epileptiform reactions induced by bicculine,NL(−/−) mice,almost completely abolished
same,Golgi staining positive cells in DG,[2],restored
same,integrity of dendritic arbors in CA1 (Golgi staining),[2],restored
same,spine maturation in DG,[2],immature spines became mature
same,NMDA reaction CA1 (maximum value of NF525),NMDA receptor (NMDAR); [3],1.20 ± 0.08
same,NMDA reaction CA2 (maximum value of NF525),NMDA receptor (NMDAR); [3],1.20 ± 0.09
same,NMDA reaction CA3 (maximum value of NF525),NMDA receptor (NMDAR); [3],1.12 ± 0.04
same,NMDA reaction DG (maximum value of NF525),NMDA receptor (NMDAR); [3],1.17 ± 0.04
same,NMDA reaction EC (maximum value of NF525),NMDA receptor (NMDAR); [3],1.16 ± 0.06
same,signal transduction via the NMDAR,NMDA receptor (NMDAR); hippocampal slices from mice fed HFD and PER 5 mg/kg/day orally by hydrogel,simultaneously restored
same,NMDAR function in all hippocampal subregions,"NMDA receptor (NMDAR); ob/ob mice, PER administration, p<0.05",restoration of NMDAR function
